In PubChem BioAssay AID1159558 (GlaxoSmithKline (GSK), 2015):
Activity calls are given as the source filed them.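 The calls were made as follows: active = IC50 against T. cruzi CYP51 below a set limit; inactive = the rest.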

molecular target: Sterol 14-alpha demethylase (Trypanosoma cruzi (strain CL Brener)) (UniProt Q7Z1V1); test: TcCYP51 inhibitors, dose response, mechanism study for T. cruzi antiparasitic project, biochemical, recombinant enzyme (AID 1159558);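 also: enzyme in bacterial membranes with Anopheles gambiae CYP reductase and cytochrome b5 partners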; conditions: recombinant T. cruzi CYP51, BOMCC fluorescence
Sequence (Q7Z1V1 whole entry, looked up): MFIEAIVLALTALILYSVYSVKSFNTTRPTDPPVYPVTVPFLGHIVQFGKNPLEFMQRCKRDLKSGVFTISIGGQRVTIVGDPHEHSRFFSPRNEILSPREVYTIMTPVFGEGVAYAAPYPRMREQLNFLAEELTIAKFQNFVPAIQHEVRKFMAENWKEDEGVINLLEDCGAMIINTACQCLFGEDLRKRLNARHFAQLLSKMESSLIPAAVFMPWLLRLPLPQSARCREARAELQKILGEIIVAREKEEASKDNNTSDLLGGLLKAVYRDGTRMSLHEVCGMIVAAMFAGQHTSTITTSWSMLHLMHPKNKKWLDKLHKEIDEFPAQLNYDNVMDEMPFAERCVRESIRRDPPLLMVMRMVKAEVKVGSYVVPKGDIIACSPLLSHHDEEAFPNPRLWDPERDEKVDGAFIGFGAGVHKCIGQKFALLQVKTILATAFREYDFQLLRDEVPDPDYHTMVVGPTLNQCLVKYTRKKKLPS

Row | IC50 | Structure (SMILES)
1 | 32 µM | CC1CN(Cc2ccc(C#N)cc2)CCN1c1ccc(NC(=O)c2ccccc2F)cc1 (configuration not stated)
2 | 0.032 µM | Cc1nn(C2CCS(=O)(=O)C2)c(C)c1CN(C)C(=O)C=Cc1sc2ccccc2c1Cl (configuration not stated)
3 | > 100 µM (inactive) | Clc1ccc(CN2CCN(C3=NCCN3)CC2)cc1Cl
4 | > 100 µM (inactive) | CCc1cccc(-n2nc(OCC(=O)NC3CCCC3)c3cccnc32)c1
5 | 2.5 µM | CC1CCCN(S(=O)(=O)c2ccc(C(=O)Nc3nc(-c4ccccn4)cs3)cc2)C1 (configuration not stated)
6 | 63 µM | Cc1nn(-c2nc(N)nc(-c3ccccn3)n2)c(C)c1Cc1ccccc1
7 | 40 µM | COc1ncc(-c2ccc3ncnc(N4CCOCC4)c3c2)cc1NS(C)(=O)=O
8 | > 100 µM (inactive) | CCCc1cc(N)nc(-c2cc(CCC)cc(N)n2)c1
9 | 25 µM | CCN(CC)c1ccc(S(=O)(=O)N(CC)CC)c2nonc12
10 | 16 µM | O=c1ccn(-c2ccc([N+](=O)[O-])cc2Cl)c2ccc(F)cc12
11 | 4 µM | CCOc1cnn(C)c(=O)c1Nc1ccc(C(=O)NCc2ccc(F)cc2)cc1
12 | 40 µM | Cc1nc(N2CC(C)OC(C)C2)sc1C(=O)Nc1ccc2c(c1)OCO2 (configuration not stated)
13 | > 130 µM (inactive) | CN(C)CCN(C)Cc1ccc(F)cc1NS(=O)(=O)c1ccc(Cl)c(Cl)c1
14 | > 100 µM (inactive) | Cc1cccnc1CN1CCN(CCCOc2ccc(-c3ccc(C(N)=O)cc3)cc2)CC1
15 | 40 µM | COc1ccc(C(=O)[C@H]2C[C@@H]2CN(Cc2ccccn2)Cc2ccccn2)cc1
16 | 32 µM | O=C(Cc1ccccc1)Nc1[nH]nc2sc(C(=O)NC3CCCC3)cc12
17 | 25 µM | Cc1ccc(Nc2nc(-c3ccccn3)cc(N3CCCC(O)C3)n2)cc1 (configuration not stated)
18 | 7.9 µM | COCCn1c(-c2ccccc2)cnc1NCc1ccccc1OC
19 | 25 µM | Cc1nn(-c2nc3ccccc3[nH]2)c2c1C(c1ccc(O)cc1)CC(=O)N2 (configuration not stated)
20 | 0.063 µM | Clc1ccc(OCCN2CCCCC2c2cccnc2)c(Cl)c1 (configuration not stated)
21 | > 100 µM (inactive) | O=c1cc(NCCCNCc2c[nH]c3ccc(Br)cc23)[nH]c2ccccc12

Row | IC50 | Structure (SMILES)
22 | 3.2 µM | O=[N+]([O-])c1cccc(Nc2cncc(-c3ccccc3CO)c2)c1
23 | 6.3 µM | O=C(Nc1nc(-c2ccccn2)cs1)c1ccc(S(=O)(=O)N2CCCCC2)cc1
24 | 25 µM | CCCc1cc(C(=O)Nc2ncc(-c3cccc(Br)c3)n2C)n[nH]1
25 | > 100 µM (inactive) | NS(=O)(=O)c1ccc(Nc2nccc(-c3cnn4ncccc34)n2)cc1
26 | 32 µM | COc1ccc(Nc2nccc(N(C)c3n[nH]c4c(F)cccc34)n2)cc1S(C)(=O)=O
27 | > 100 µM (inactive) | Cc1[nH]c2ccccc2c(=O)c1Cc1c(C)[nH]c2ccccc2c1=O
28 | > 100 µM (inactive) | Oc1cccnc1-c1n[nH]c(Cc2ccccc2)n1
29 | 10 µM | CCCn1c(NC(=O)CCn2cc(Br)cn2)nc2ccccc21
30 | 25 µM | Cc1nnnn1-c1cccc(C(=O)N2CCC[C@@]3(C)c4ncncc4CCC23)c1 (some centres not stated)
31 | 0.079 µM | COc1ccc(CN(C)Cc2ccncc2)cc1-c1ccc(S(=O)(=O)NC2CCC2)s1
32 | 32 µM | O=C(NNC(=O)c1ccccn1)c1ccc(-c2ccccc2)cc1
33 | > 100 µM (inactive) | O=C(CSc1nnc2ccc(-c3ccc(F)cc3)nn12)N1CCCCC1
34 | 0.025 µM | CS(=O)(=O)NC1CCC(Oc2cc3cnccc3cc2-c2ccsc2)CC1 (configuration not stated)
35 | 0.1 µM | Cc1ccc2c(c1)-c1onc(C(=O)N3CCCCC3c3cccnc3)c1CO2 (configuration not stated)
36 | > 100 µM (inactive) | N#Cc1ccc(S(=O)(=O)N2CCC3(CCN(c4ccccc4)C3=O)CC2)cc1
37 | 7.9 µM | CCN(Cc1nc2ccc(C(=O)N3CCN(c4ncccn4)CC3)cc2[nH]1)C1CCCc2cccnc21 (configuration not stated)
38 | 40 µM | CC(c1cc(Cl)cc(Cl)c1)N(C)c1ncc2c(N)nc(N)nc2n1 (configuration not stated)
39 | 32 µM | CN1C(=O)c2ccccc2Sc2ccc(NC(=O)NCc3ccco3)cc21
40 | > 100 µM (inactive) | O=C(Nc1ccc(Br)c(Cl)c1)Nc1ccc2c(c1)OCO2
41 | > 100 µM (inactive) | c1ccc2[nH]c(-c3ccc(N4CCCC4)nc3)nc2c1
42 | > 100 µM (inactive) | CCc1nn(-c2ncc(F)c(NC(C)C)n2)c(N)c1C1CCCCC1
